Common to all, as to assay type: binding, human
The test system of assay [1] is antibodies to HCV. As to the kind of experiment: Peptide ELISA for relative immunoreactivity, 8 member HCV serum panel (Panel I). The settings on record: for absorbance of the one reactive panel member: reactive with only one of eight. Here is the method: As an example to illustrate how relative (%) immunoreactivity for HCV synthetic peptides is measured, wells of 96-well plates are coated for 1 hour at 37° C., with each of the following peptides: IIH, V, VIIIE and pep11 at 5 ug/mL at 100 uL per well in 10 mM NaHCO3 buffer, pH 9.5. The peptide coated wells were then incubated with 250 uL of 3% by weight of gelatin in PBS in 37° C. for 1 hour to block non-specificprotein binding sites, followed by three washes with PBS containing 0.05% by volume of TWEEN 20 and then dried. The test specimens containing a panel of eight well-characterized HCV antibody positive patient sera were diluted with PBS containing 20% by volume normal goat serum, 1% by weight gelatin and 0.05% by volume TWEEN 20 at dilutions of 1:20 volume to volume, respectively. 200 uL of the diluted specimens were added to each of the wells and allowed to react for 15 minutes at 37° C.
The wells were then washed six times with 0.05% by volume TWEEN 20 in PBS in order to remove unbound antibodies. Horseradish peroxidase conjugated goat anti-human IgG was used as a second antibody tracer to bind with the HCV antibody-peptide antigen complex formed in positive wells. 100 uL of peroxidase labeled goat anti-human IgG at a dilution of 1:1800 in 1% by volume normal goat serum, 0.05% by volume TWEEN 20 in PBS was added to each well and incubated at 37° C. for another 15 minutes.
The wells were washed six times with 0.05% by volume TWEEN 20 PBS to remove unbound antibody and reacted with 100 uL of the substrate mixture containing 0.04% by weight orthophenylenediamine (OPD) and 0.12% by volume hydrogen peroxide in sodium citrate buffer, pH 5.0.
This substrate mixture was used to detect the peroxidase label by forming a colored product. Reactions were stopped by the addition of 100 uL of 1.0M H2 SO4 and the A492 mm measured. Results of relative immunoreactivity for each of the peptides obtained from this study are shown in Table A using peptide II H as the reference.

Assay [2] concerns antibodies to HCV. As to the kind of experiment: Envelope/NS-1 peptide ELISA, anti-HCV positive plasmapheresis donors with elevated ALT (Panel III). The settings on record: envelope/NS-1 peptides; Panel III (17 samples); peptide 254B as a standard. Here is the method: To select a panel of samples with reactivity to peptides from the envelope/NS-1 region, 97 such samples from anti-HCV positive plasmapheresis donors with elevated ALT levels were tested with peptide 254B. […] 17 samples with the greatest reactivity with peptide 254B were chosen to form a third panel (Panel III) to screen for the immunoreactivity of the other 20 peptides from the envelope/NS-1 region. The individual absorbance values of each of the 17 samples on the four peptides with the greatest reactivity, i.e. 255C (pep7), 254B (pep8), 247B (pep9), and 246D (pep10), are listed in Table 8b.

For assay [3], the system named is antibodies to HCV. As to the kind of experiment: NS-1 peptide ELISA, Panel II (asymptomatic individuals, mainland China and Taiwan). Here is the method: Wells of 96-well plates were coated for 1 hour at 37° C. with each of the 16 peptides (designated as peptides 241A-C, 231A-E, 232A-D, 233C, 234A-C), synthesized according to sequences derived from the NS-1 region (Table 3A), at 5 ug/mL at 100 uL per well in 10 mM NaHCO3 buffer, pH 9.5. Each peptide's immunoreactivity was measured as previously described (see Example 1), using an 8 member serum panel (Panel I).
A panel of serum samples from individuals coming from regions in which hepatitis C is endemic, namely mainland China and Taiwan, were tested for evidence of reactivity to these NS-1 protein derived peptides. Twenty-four samples were chosen from individuals who had no recognizable symptoms of non-A, non-B hepatitis and for whom the peptide based HCV EIA, Format C, as described in Example 11, was nonreactive. Seven of the 24 samples (29%) were reactive against one or more peptides from the NS-1 region, indicative of the presence of long term protective antibodies responsive to this region. This 7 member panel (designated as Panel II, CH1-CH7) was used to further characterize these NS-1 peptides for their immunoreactivity.
The peptide with the greatest reactivity against the serum Panel II again was pep1 (designated 231c in Table 3A). Using this peptide as a standard, the relative immunoreactivity for each of the other 15 peptides from the NS-1 region are calculated in Table 3A.

The test system of assay [4] is antibodies to HCV. As to the kind of experiment: EIA of NS-3 peptides before and after pH adjustment. Here is the method: Peptides dissolved at 1 mg/mL in H2 O, pH 4, were titrated to pH 11 by addition of diluted NaOH. After 5 min at pH 11, the pH of the peptide solution was brought down to 7.0 using diluted HCl. Immunoreactivity of the peptides thus treated was compared with reactivity prior to pH adjustment (Table 4E). Two-to three-fold increases in A492 nm were seen. Some previously non-reactive serum samples were able to react with pH adjusted peptides. For instance, serum sample 1, which is non-reactive to 261C, has an absorbance of 1401 mA when tested with the corresponding pH adjusted peptide.

Where [5] appears, read: NS-5 peptides (Table 12), Panel I, pep11 as a standard.
Where [6] appears, read: capsid peptides, Panel I, relative to VIIIE, coated at 5, 1 and 0.2 μg/mL.
[7] abbreviates: NS-3 peptides (Table 4A), Panel I, relative to pep3 (279A).
Where [8] appears, read: Arima clone 1 peptides, relative to peptide VIIIE.
[9] abbreviates: serum sample 1, Ctrl (prior to pH adjustment).
Where [10] appears, read: serum sample 1, pH adj (pH 11 for 5 min, then 7.0).

On to “LWRVSAEEYVEIRQVGDFHYVIGMTTDNLKCPCQVPSP [312C]”, for which the “% IP” value in assay [1] (setting [5]) amounted to 40.4%. Take “VGGVYLLPRRGPRLGVRATRKTSERSQPRGRR [VIIIB]”: the “% Relative Immunoreactivity” value in assay [1] (setting [6]) is recorded as 48.9%. The same measure, in the same setting: in the case of “IPKVRRPEGRTWAQPGYPWPLYGNEGCGWAGWLLSPRGSRPSWGPTDPRRRSRNLG [IXD]” it was 58.9%; in that of GPRLGVRATRKTSERSQPRGRR [VIIIA], 32.7%. Consider “KQNIQLINTNGSWHINSTALNCNESLNTGWLAGLIYQHKFNSSGCPERLASC [246E]”, for which, in assay [2], the “% Relative Immunoreactivity” value is reported as 10.5%. Take PPLGNWFGCTWMNSTGFTKVCGAPPC [232A]: the “% IP” value in assay [3] (NS-1 peptides, Panel II (CH1-CH7), relative to pep1 (231C)) turned out to be 88.7%. Also, the “A492 nm by EIA (mA)” value in assay [3] (Panel II sample CH-1) was 202 mA; in assay [3] (Panel II sample CH-2), 261 mA; in assay [3] (Panel II sample CH-3) it was 935 mA; in assay [3] (Panel II sample CH-4), 1498 mA; in assay [3] (Panel II sample CH-5), 621 mA; in assay [3] (Panel II sample CH-6) it was 1128 mA. The “A492 nm by EIA (mA)” value in assay [3] (Panel II sample CH-7) was found to be 552 mA.

For the molecule “SECTTPCSGSWLRDIWDWICEVLSDFKTWLKAKLMPQL [314B]”, the “% IP” value in assay [1] (setting [5]) is reported as 11.6%. On to TQGCNCSIYPGHITGHRMAWDMMMWSPTA [254A], for which the “% Relative Immunoreactivity” value in assay [2] is on record as 21.4%. As for PVVPQSFQVAHLHAPTGSGKSTKVPAAYA [278A], the “% IP” value in assay [1] (setting [7]) is 8.2%. Turning to CNESLNTGWLAGLIYQHKFNSSGCPERLASC [246B], in assay [2], the “% Relative Immunoreactivity” value came to 19.8%. Turning to “PVVPQSFQVAHLHAPTGSGKSTKVPAAYAAQGYKVLVLNPS [272A]”, the “% IP” value in assay [1] (setting [7]) was found to be 2.1%.

On to “TNDCPNSSIVYEAHDAILHTPGCVPCVREGNVSRC [255A]”, for which the “% Relative Immunoreactivity” value in assay [2] worked out at 9.8%. For “LRRLHQWISSECTTPCSGSWLRDIWDWICEVLSDFKTWLKAKLMPQL [314C]”, in assay [1] (setting [5]), the “% IP” value is 14.2%. As to “CGSVFLIGQLFTFSPRRHWTTQGCNCSIYPGHITGHRMAWDMMMNWSPTA [254C]”, in assay [2], the “% Relative Immunoreactivity” value turned out to be 16.7%. In the case of “TWAQPGYPWPLYGNEGCGWAGWLLSPRGSRPSWGPTDPRRRSRNLG [IXC]”, the “% Relative Immunoreactivity” value in assay [1] (setting [6]) amounted to 57.9%.

Turning to “KKQRRYKEKEKTATNNPGKNKKPRVGRIKNWNREGRKDAYQIRKRR (NDTHKKQRRYKEKEKTATNNPGKNKKPRVGRIKNWNREGRKDAYQIRKRR) [50 mer, reference compound]”, the “% Relative Immunoreactivity” value in assay [1] (setting [8]) is recorded as 17.8%. In the case of “CWVAMTPIVATRDGKLPATQLRRHIDLLVGSATLC [244A]”, in assay [2], the “% Relative Immunoreactivity” value is 3.8%.

For “CQVPSPEFFTELDGVRLHRFAPPCKPLLREEVSFRVGLHEYPVGSQLPCEPEPD [311C]”, the “% IP” value in assay [1] (setting [5]) was 16.8%. As for “CVREGNVSRCWVAMTPTVATRDGKLPATQLRRHIDLLVGSATLC [244B]”, the “% Relative Immunoreactivity” value in assay [2] was determined as 5.8%. Regarding “RTITTGSPITYSTYGKFLADGGCSGGAYDIIICDECHSTDATSILGIGTVLDQAETAGARLVVLATATPPGSVTVPHPNIEEVALSTTGEIPFYGKAIPLEVIKGGRHLIFCHSKKKCDEL [261F]”, the “absorbance of the one reactive panel member” value in assay [1] (Panel I) was determined as 269 mA. For the molecule “FTDNSSPPVVPQSFQVAHLHAPTGSGKSTKPAAYA [278B]”, in assay [1] (setting [7]), the “% IP” value worked out at 1.4%. For “KEKEKTATNNPGKNKKPRVGRIKNWNREGRKDAYQIRKRR [40 mer, reference compound]”, in assay [1] (setting [8]), the “% Relative Immunoreactivity” value was found to be 21.1%.

B1: GRRQPIPKVRRPEGRTWAQPGYPWPLYGNEGCGWAGWLLSPRGSRPSWGPTDPRRRSRNLG (peptide)
peptide: GRRQPIPKVRRPEGRTWAQPGYPWPLYGNEGCGWAGWLLSPRGSRPSWGPTDPRRRSRNLG
In the case of B1, the “% Relative Immunoreactivity” value in assay [1] (setting [6]) is listed as 50.2%.

B2: GCSGGAYDIIICDECHSTDATSILGIGTVLDQAETAGARLVVLATATPPGSVTVPHPNIEEVAL (peptide)
chain: GCSGGAYDIIICDECHSTDATSILGIGTVLDQAETAGARLVVLATATPPGSVTVPHPNIEEVAL
Regarding B2, the “A492 nm (mA) by EIA” value in assay [4] (setting [9]) is 628 mA; in assay [4] (setting [10]) it was 1604 mA; in assay [4] (serum sample 2, Ctrl) it was 148 mA; in assay [4] (serum sample 2, pH adj) it was 466 mA; in assay [4] (serum sample 3, Ctrl) it was 9 mA; in assay [4] (serum sample 3, pH adj) it was 625 mA. The “A492 nm (mA) by EIA” value amounted to 464 mA in assay [4] (serum sample 4, Ctrl) and 1144 mA in assay [4] (serum sample 4, pH adj).

B3: AVDFIPVENLETTMRSPVFTDNSSPPVVPQSFQVAHLHAPTGSGKSTKVPAAYAAQGYKVLVLNPS (peptide)
chain: AVDFIPVENLETTMRSPVFTDNSSPPVVPQSFQVAHLHAPTGSGKSTKVPAAYAAQGYKVLVLNPS
In the case of B3, the “% IP” value in assay [1] (setting [7]) is 11.8%. The “A492 nm (mA) by EIA” value in assay [4] (setting [9]) was 8 mA; in assay [4] (setting [10]), 973 mA; in assay [4] (serum sample 2, Ctrl) it was 74 mA; in assay [4] (serum sample 2, pH adj), 255 mA; in assay [4] (serum sample 3, Ctrl), 29 mA; in assay [4] (serum sample 3, pH adj) it was 141 mA. For the same molecule, the “A492 nm (mA) by EIA” value in assay [4] (serum sample 4, Ctrl) worked out at 17 mA; in assay [4] (serum sample 4, pH adj), 158 mA.

B4: AEEDEREISVPAEILRKSRRFAQALPVWARPDYNPPLVETWKKPDYEPPVVHGCPLPPPKSPPVPPPRKKRT (peptide)
chain: AEEDEREISVPAEILRKSRRFAQALPVWARPDYNPPLVETWKKPDYEPPVVHGCPLPPPKSPPVPPPRKKRT
Turning to B4, in assay [1] (setting [5]), the “% IP” value is on record as 97.2%.

B5: KKGEASNGEAENDTHKKQRRYKEKEKTATNNPGKNKKPRVGRIKNWNREGRKDAYQIRKRR (peptide)
peptide: KKGEASNGEAENDTHKKQRRYKEKEKTATNNPGKNKKPRVGRIKNWNREGRKDAYQIRKRR
With B5, in assay [1] (setting [8]), the “% Relative Immunoreactivity” value amounted to 20.7%.

B6: GGAYDIIICDECHSTDATSILGIGTVLDQAETAGARLVVLATATPPGSVTVPHPNIEEVALSTTGEIPFYGKAIPLEVIKGGRHLIFCHSKKKCDEL (peptide)
chain: GGAYDIIICDECHSTDATSILGIGTVLDQAETAGARLVVLATATPPGSVTVPHPNIEEVALSTTGEIPFYGKAIPLEVIKGGRHLIFCHSKKKCDEL
As for B6, the “absorbance of the one reactive panel member” value in assay [1] (Panel I) stood at 307 mA.

Source of the values: patent US5747239A, “Synthetic peptides specific for the detection of antibodies to HCV, diagnosis of HCV infection and preventions thereof as vaccines” (United Biomedical, Inc., priority 1994, dated 1998).
